The structures appear in SMILES notation.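 The compound was tested at five concentrations on cells cultured in 96-well plates, with a 48-hour exposure period. GI50 = concentration required for 50% inhibition of growth. Definition used: TGI = concentration required for complete inhibition of growth.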

In PubChem BioAssay (NCI) one finds GI50 and TGI data, which are given here for 13 molecules.

Holding throughout (assay): DTP human tumour cell line panel, 48 h
Assay [1] deals with MDA-MB-435.
Assay [2] deals with COLO 205 colon.
In assay [3] the test system is HOP-62 NSCLC.
Assay [4] deals with K-562 leukemia.
The subject of assay [5] is NCI-H522 lung.
Assay [6] relates to SNB-19 CNS.
Assay [7] concerns T-47D breast.
In assay [8] the test system is CAKI-1 renal.

As usually defined, the GI50 is the concentration at which growth is held to half of that of the control. What is called TGI is the concentration at which net growth stops. Lower therefore signals more potent growth arrest. On to `COc1ccc2c(c1)c(-c1nc(-c3cn(C)c4ncccc34)cs1)cn2CCCCN1CCCCC1`, for which, in assay [1], the GI50 is 1.66 µM and the TGI is 3.04 µM.
As to `COc1cnc2c(c1)C(=O)c1c-2n(CCCN2CCNCC2)c(=O)c2cc(F)ccc12`, the GI50 is 0.15 µM in assay [2]; 0.0665 µM in assay [3]; 0.148 µM in assay [4]; 0.578 µM in assay [1]; 0.118 µM in assay [5]; 0.13 µM in assay [6]. In assay [7], the GI50 was 0.266 µM. Further, the TGI in assay [2] came to 1.44 µM; in assay [3], 0.352 µM; in assay [4], 1.44 µM; in assay [1], 2.01 µM; in assay [5], 1.35 µM; in assay [6] it was 1.24 µM. This molecule also came in with a concentration for total growth inhibition (TGI) in assay [7] of 13.2 µM.
As for `O=c1[nH]c(-c2ccncc2)nc2sc3c(c12)CCCCCC3`, the GI50 in assay [8], in assay [2], in assay [3], in assay [4], in assay [1] and in assay [5] was more than 100 µM each time. The TGI in assay [8], in assay [2], in assay [3], in assay [4], in assay [1] and in assay [5] was more than 100 µM each time.
On to `C=CN(C(=O)N1CCN(c2cc3c(cc2F)c(=O)c(C(=O)O)cn3C2CC2)CC1)c1nc(-c2ccc(C)cc2)cs1`, for which the GI50 is 2.09 µM in assay [2]; 3.49 µM in assay [3]; 1.96 µM in assay [4]; 2.27 µM in assay [5]; 4.16 µM in assay [6]. Also, the TGI was 4.72 µM in assay [2]; more than 100 µM in assay [3]; more than 100 µM in assay [4]; 6.23 µM in assay [5]; more than 100 µM in assay [6].
With `c1c[nH]c(CN2CCN(Cc3ncc[nH]3)CC2)n1`, the total growth inhibition concentration (TGI) in assay [8], in assay [2], in assay [3], in assay [1], in assay [5] and in assay [6] was more than 100 µM each time. The same molecule had a TGI in assay [7] of more than 100 µM.
In the case of `CCN(CC)CCCC(C)Nc1ccnc2cc(OC)ccc12` (stereo unspecified), the GI50 is 19.6 µM in assay [8]; 16.1 µM in assay [2]; 21.2 µM in assay [3]; 33.7 µM in assay [4]; 19.9 µM in assay [1]; 17.9 µM in assay [5]. Also, the GI50 in assay [6] is 22.4 µM. The TGI in assay [8] was 44.4 µM; in assay [2], 36.8 µM; in assay [3] it was 50.9 µM; in assay [4], more than 100 µM; in assay [1], 40.5 µM; in assay [5], 37.4 µM. Besides, in assay [6], the TGI amounted to 53.3 µM.
With `Cc1nn(-c2ccccc2)c2c1[C@@H](C)[C@H]1CC3(CC4(C)C[C@@H]3C1(C)c1c(C)nn(-c3ccccc3)c1N4C)N2C` (stereo partly specified), the GI50 is 18.3 µM in assay [3], 3.88 µM in assay [5], more than 100 µM in assay [6] and 2.64 µM in assay [7]. The TGI in assay [3], in assay [5], in assay [6] and in assay [7] was more than 100 µM throughout.
Regarding `COc1cc(-c2nn(-c3cccc(NC(=O)NCCNC(=O)c4ccccc4)c3)cc2-c2ccncc2)ccc1Cl`, the GI50 in assay [3] is 3.95 µM; in assay [1], 2.41 µM; in assay [5], 1.79 µM; in assay [6], 4.83 µM; in assay [7], 1.25 µM. The TGI in assay [3] is more than 100 µM; in assay [1], 9.29 µM; in assay [5] it was 7.37 µM; in assay [6], more than 100 µM; in assay [7] it was 8.79 µM.
For `CN1CC[C@H](N(C)C(=O)N2CC(c3cc(F)ccc3F)=C[C@@]2(CO)c2ccccc2)[C@H](F)C1`, the GI50 in assay [8] is 0.0459 µM; in assay [4], 0.00744 µM; in assay [1] it was 0.00258 µM; in assay [5], 0.00871 µM; in assay [6], 0.0259 µM; in assay [7] it was 0.0635 µM. Moreover, the concentration for total growth inhibition (TGI) in assay [8] is more than 100 µM; in assay [2] it was 3.77 µM; in assay [4] it was more than 100 µM; in assay [1] it was 0.00772 µM; in assay [6], more than 100 µM; in assay [7], more than 100 µM.
Turning to `COc1cc(C(=O)N[C@@H]2CCCN(C)C2)ccc1Nc1ncc2c(n1)N(C1CCCC1)CC(C)(C)C(=O)N2C`, the GI50 in assay [8] was 0.984 µM; in assay [2], 0.0412 µM; in assay [3], 0.0641 µM; in assay [4] it was 0.0378 µM; in assay [5] it was 0.0209 µM; in assay [6], 0.23 µM. The GI50 in assay [7] was 1.12 µM. For the same molecule, the TGI in assay [8] is 19.7 µM; in assay [2], 1.18 µM; in assay [3] it was 10.2 µM; in assay [4], 3.19 µM; in assay [5], 0.0575 µM; in assay [6], 20.4 µM. In addition, the TGI in assay [7] came out at 17.8 µM.
For the molecule `O=C1C(=C2C(=O)c3ccccc3[N+]2=O)N([O-])c2ccccc21`, the TGI was 33 µM in assay [2], 50.1 µM in assay [4] and more than 100 µM in assay [6].
On to `CC1SC(c2ccc(OCc3ccccc3)cc2)N(NC(=O)C(O)(c2ccccc2)c2ccccc2)C1=O` (stereo unspecified), for which the GI50 is 2.49 µM in assay [8]; 1.98 µM in assay [2]; 2.01 µM in assay [3]; 3.36 µM in assay [4]; 3.52 µM in assay [1]; 5 µM in assay [6]. For the same molecule, in assay [7], the GI50 was 3.52 µM. The TGI in assay [8] is 8.6 µM; in assay [2], 4.26 µM; in assay [3], 8.1 µM; in assay [4], more than 100 µM; in assay [1], 13.8 µM; in assay [6], 21.5 µM. For the same molecule, the TGI in assay [7] was determined as 14.9 µM.
With `O=C(/C=C/c1c[nH]c2ccccc12)c1ccccc1O`, the TGI is 28.1 µM in assay [3]; more than 100 µM in assay [4]; 27.9 µM in assay [1]; 23 µM in assay [5]; 36.7 µM in assay [6]; 7.29 µM in assay [7].
